Results published in patent US20200397894A1, “COMPOSITIONS AND METHODS FOR TREATING CANCER” (University of Virginia Patent Foundation, priority 2016, published 2020).

Tested on: DM93 cells
Assay: Cell cycle distribution and rereplication by propidium iodide staining and FACS
Type: cell-based, human
Conditions: for DM93 cells exhibiting >4N DNA content / Percent Cells in S and G2/M / Percent Cells in sub-G1: 1 μM pevonedistat; for Percent Cells in S and G2/M / Percent Cells in sub-G1 / Percent of Cells in S and G2/M / Percent of Cells in sub-G1: DM93 cells; for rereplication after transient exposure and washout: analyzed 48 hours later
Description: The effects of pevonedistat, vemurafenib, and/or silencing of various cell cycle-associated proteins by siRNA on cell cycle distribution and rereplication were assessed by propidium iodide staining and flow cytometry of asynchronous melanoma cultures. Synchronization of cells was not employed to avoid bias and to be able to measure the impact of these perturbations on proliferating cancer cells. […] Cells were washed with cold PBS, harvested, and fixed in 70% (v/v) ethanol. Cells were subsequently treated with 20 μg of DNase-free RNase and stained with propidium iodide according to instructions of the manufacturer. Samples were analyzed on a FACSCAN™ (Becton, Dickinson and Company, Franklin Lakes, N.J., United States of America) and G0-G1, S, and G2-M fractions were segmented, and apoptotic (sub-G1 DNA content) and rereplicating (>G2/M DNA content) fractions were determined using FLOWJO® (FLOWJO, LLC, Ashland, Oreg., United States of America) and ModFit (Verity Software House, Topsham, Me., United States of America) software.

[1] = 24 hours, 0.025 μM pevonedistat
[2] = 24 hours, 0.100 μM pevonedistat
[3] = 24 hours, 0.500 μM pevonedistat (first row so printed, r9)
[4] = 24 hours, 0.500 μM pevonedistat (r11)
[5] = 24 hours, 0.750 μM pevonedistat
[6] = 24 hours, 1.000 μM pevonedistat
[7] = 24 hours, 2.000 μM pevonedistat

`NS(=O)(=O)OCC1CC(n2ccc3c(NC4CCc5ccccc54)ncnc32)CC1O` [pevonedistat, ((1S,2S,4R)-4-(4-((1S)-2,3-Dihydro-H-inden-1-ylamino)-7H-pyrrolo(2,3-d)pyrimidin-7-yl)-2-hydroxycyclopentyl)methyl sulphamate] was tested, and the “DM93 cells exhibiting >4N DNA content” value (by 72 hours of treatment) was 68%, the “DM93 cells exhibiting >4N DNA content” value (within 24 hours) was 18% and the cells undergoing rereplication (DM93, 1 μM pevonedistat for 48 hours) was 45%. For the same compound, the “Percent of Cells in S and G2/M at 24 hours” value (DM93, 1 μM pevonedistat, 24 hours) was 27.2%, the “Percent of Cells in S and G2/M at 72 Hours” value (DM93, 1 μM pevonedistat, 72 hours) was 59.2% and the cells undergoing rereplication (DM93, 72 hours post-treatment) was 60%. For the same compound, the “lowest drug concentration at which rereplication was observed” value (DM93, analyzed at 24 hours) was 500 nM, the “cells with sub-G1 DNA content” value (DM93, pevonedistat, 72 hours) was ~7% and the “Percent Cells in S and G2/M” value (3 hours) was 4.05%. For the same compound, the “Percent Cells in sub-G1” value (3 hours) was 1.94%, the “Percent Cells in S and G2/M” value (6 hours) was 13% and the “Percent Cells in sub-G1” value (6 hours) was 0.49%. The “Percent Cells in S and G2/M” value (24 hours) was 17%, the “Percent Cells in sub-G1” value (24 hours) was 1.4% and the “Percent Cells in S and G2/M” value (48 hours) was 64.7%. For the same compound, the “Percent Cells in sub-G1” value (48 hours) was 2.08%, the “Percent Cells in S and G2/M” value (72 hours) was 68.3% and the “Percent Cells in sub-G1” value (72 hours) was 7.08%. For the same compound, the “Percent of Cells in S and G2/M” value [1] was 0.57%, the “Percent of Cells in sub-G1” value [1] was 1.72% and the “Percent of Cells in S and G2/M” value [2] was 2.21%. The “Percent of Cells in sub-G1” value [2] was 5.62%, the “Percent of Cells in S and G2/M” value [3] was 1.11% and the “Percent of Cells in sub-G1” value [3] was 1.61%. The “Percent of Cells in S and G2/M” value [4] was 18.1%, the “Percent of Cells in sub-G1” value [4] was 4.49% and the “Percent of Cells in S and G2/M” value [5] was 47.4%. The “Percent of Cells in sub-G1” value [5] was 2.05%, the “Percent of Cells in S and G2/M” value [6] was 56.6% and the “Percent of Cells in sub-G1” value [6] was 1.21%. For the same compound, the “Percent of Cells in S and G2/M” value [7] was 66%, the “Percent of Cells in sub-G1” value [7] was 0.53% and the “rereplication after transient exposure and washout” value (treated 12 hours) was 18%. For the same compound, the “rereplication after transient exposure and washout” value (treated 24 hours) was 60%.
